Results: patent US7138543B2, “Thiolalkyl benzoic acid derivatives” (Guilford Pharmaceuticals Inc., priority 2001, dated 2006)

Experiments:
[1] = test system: rats with unilaterally transected optic nerve; test: Optic nerve transection (optic nerve fiber counting); assay type: in vivo, Rattus norvegicus; conditions: for FIBER NUMBER: 10 mg/kg daily intraperitoneal
Experimental: (§1) All experiments complied with the Association for Research in Vision and Ophthalmology Statement for the Use of Animals in Ophthalmic and Vision Research. 82 male Brown Norway rats (Rattus norvegicus), each weighing approximately 250 gm, were treated using procedures approved by the Animal Care Committee of the Johns Hopkins University School of Medicine. The rats were housed with a 12 hour light/12 hour dark cycle and fed ad libitum.
OPTIC NERVE TRANSECTION: The optic nerve was transected unilaterally in 26 rats under intraperitoneal pentobarbital anesthesia. The conjunctiva was opened with scissors and the optic nerve exposed by traction on extraocular muscles. The transection was performed with microscissors 5 mm posterior to the globe, with specific attention to avoidance of injury to major ocular blood vessels. Immediately after transection, the retina was examined ophthalmoscopically to assure that the retinal arterial blood supply was not disrupted. The conjunctiva was closed with absorbable suture and the eye dressed with antibiotic ointment. Beginning on the day of transection, the rats were treated daily with intraperitoneal injections of either a vehicle (9 rats with 50 mM HEPES-buffered saline) or a NAALADase inhibitor (8 rats with 10 mg/kg of Compound A and 9 rats with 10 mg/kg of Compound B). 5 saline treated rats, 3 Compound A treated rats, and 4 Compound B treated rats were sacrificed at 2 weeks, and the remaining rats at 4 weeks, after transection.
(§2) OPTIC NERVE COUNTING: The rats were sacrificed by exsanguination under deep pentobarbital anesthesia. They were perfused through the heart with 2% paraformaldehyde/2% glutaraldehyde in 0.1 M phosphate buffer, pH 7.2, and the eyes with attached optic nerves were removed. A cross-section of the optic nerve from both experimental (glaucoma or transection) and control eyes was removed 1.5 mm posterior to the globe, 1 mm in thickness, and post-fixed in 2% osmium tetroxide in buffer. These were processed into epoxy resin, sectioned at 1 micron and stained with toluidine blue.
(§3) The area of the optic nerve cross-section was measured by outlining its outer border at 10× magnification on an image analysis system (Universal Imaging Corp., Westchester, Pa.) with Synsys digital camera and Metamorph software. Three area measurements were taken and the mean value was determined. To measure the density and fiber diameter distributions, images were captured with a 100× phase contrast objective from 10 different areas of each nerve. These were edited to eliminate non-neural objects and the size of each axon internal to the myelin sheath (its minimum diameter) and the density of axons/square mm were calculated for each image and nerve. The mean density was multiplied by total nerve area to yield fiber number for each nerve. The total fiber number in glaucoma or transection nerves was compared to the normal, fellow eye of each rat to yield a percent loss value. The number of axons counted among the 10 images was an approximately 20% sample of the 80–90,000 axons in normal rat nerves. The person measuring axon number was masked to the protocol conducted on the nerves.

[2] = test system: rats with unilateral elevation of intraocular pressure; test: Experimental rat glaucoma (IOP elevation, optic nerve fiber counting); assay type: in vivo; conditions: for FIBER NUMBER: 10 mg/kg daily intraperitoneal; for PERCENT DIFFERENCE in fiber number between glaucoma and normal eye: positive value indicates fewer fibers in the glaucoma eye
Experimental: Protective Effect of NAALADase Inhibitors in Experimental Rat Glaucoma
as §1
EXPERIMENTAL GLAUCOMA: Unilateral elevation of intraocular pressure (“IOP”) was produced in 56 rats by microinjection of hypertonic saline into episcleral veins, following procedures described in Morrison, J. et al., IOVS (March 1998) 39:526–531. Beginning on the day of IOP elevation, the rats were treated daily with intraperitoneal injections of either a vehicle (23 rats with 50 mM HEPES-buffered saline) or a NAALADase inhibitor (11 rats with 10 mg/kg of Compound A and 22 rats with 10 mg/kg of Compound B). 11 saline treated rats, 11 Compound A treated rats and 11 Compound B treated rats were sacrificed at 8 weeks, and the remaining rats at 12 weeks, after initial IOP elevation.
as §2, §3

[3] = test system: transgenic HD mice of the N171-82Q strain; test: Huntington's disease transgenic mouse model: rotarod and locomotion; assay type: in vivo
Experimental: Neuroprotective Effect of NAALADase Inhibitors in Transgenic Mouse Model of Huntington's Disease Behavioral Testing (Rotarod) Transgenic HD mice of the […]-[…] strain and non-transgenic littermates were treated with NAALADase inhibitor Compound B (30 mg/kg) or a vehicle from 10 weeks of age. The mice were placed on a rotating rod (“rotarod”). The length of time at which the mouse fell off the rotarod was recorded as a measure of motor coordination. […] The treatment with Compound B had no effect on the rotarod performance of normal non-HD mice. The total distance traveled by the mice was also recorded as a measure of overall locomotion.

[4] = test system: transgenic HD mice (N171-82Q); test: Huntington's disease transgenic mouse model: survival; assay type: in vivo
Experimental: The effects of Compound B and vehicle on the survival of transgenic HD mice (N171-82Q) were evaluated. Thirteen mice (six male and seven female) were assigned to the Compound B treatment group, and fourteen mice (six male and eight female) were assigned to the vehicle treatment group. Treatment was continued until all the mice died.

[5] = test system: BB/W diabetic rats; test: Progression of neuropathic pain in BB/W model (withdrawal latency); assay type: in vivo; conditions: 10 mg/kg i.p. daily; vs diabetic vehicle-treated rats, from 4 weeks through six months of treatment, FIG. 11
From the text: In vivo Assay of NAALADase Inhibitors on Progression of Neuropathic Pain in BB/W Models
(§4) Male BB/W rats (BRI, Mass) spontaneously develop a cell mediated autoimmune destruction of pancreatic B cells, resulting in onset of insulin-dependent (Type I) diabetes (Awata, Guberski, Endocrinology (1995) 136(12):5731–5). […] This renders them valuable for experimental trials of new compounds for future treatments of this major disorder. In the present study, Compound A and Compound D were examined for their ability to alter the progression of diabetic neuropathy. The rats received daily injection of Compound A or Compound D (10 mg/kg i.p.) or vehicle, starting at the onset of diabetes (hyperglycemia) and up to 6 months thereafter. Another group of non-diabetic rats also receiving vehicle were tested. All animals were continuously monitored for body weight, urine volume, blood sugar and glycated haemoglobin. In the first month of the study, all animals were tested for thermal nociception in a Hargreaves apparatus, weekly. After the first month this was done biweekly and then monthly. The testing consists of directing an infrared heat source onto the dorsal surface of the rat hindpaw and noting the time taken for the animal to remove its paw (see Hargreaves et al., J. Biol. Chem. (1988) 263(36):19392–7 for a description of the experimental method). […]

[6] = test system: STZ diabetic rats; test: Reversal of diabetic neuropathy in STZ model, delayed dosing: nerve conduction velocity; assay type: in vivo
Experimental: (§5) In vivo Assay of NAALADase Inhibitors—Reversal of Diabetic Neuropathy in STZ Model
(§6) General Method for STZ Model—Delayed Dosing
(§7) Rats (200–225 grams) were injected with STZ (70 mg/kg) into the tail vein. Diabetes (>350 mg/dl) was confirmed in all rats, 4 weeks after STZ administration. Rats were left untreated until 35–49 days after STZ. Compound D (1, 3, or 10 mg/kg), Compound E (10 mg/kg), or vehicle were dosed daily p.o. following confirmation of hyperalgesia and/or nerve conduction velocity deficits. In separate experiments, onset of treatment was delayed until 60 to 90 days after STZ administration. Nerve conduction velocity or withdrawal response to thermal stimulation of hind paws was measured at intervals, usually bi-weekly for thermal response and monthly for nerve conduction velocity.
Nerve Conduction Velocity Measurements
Sensory and motor nerve conduction velocities were evaluated using the method of De Koning and Gispen (Peptides 8: 415–422, 1987). Electrophysiological evaluation was carried out within one hour of dosing. Animals were anesthetized with isoflurane and stimulating needle electrodes were inserted close to the sciatic nerve at the sciatic notch and the tibial nerve near the ankle. Recording electrodes were placed over the foot muscles. Stimuli were applied and responses recorded. Motor and sensory nerve conduction velocities were calculated by measuring the distance between the sciatic notch and ankle sites, and the latency between the M-wave and the H-reflex.

[7] = test system: STZ-diabetic rats; test: Neuropathic pain in STZ model (Hargreaves thermal nociception); assay type: in vivo, Sprague-Dawley rats; conditions: 10 mg/kg i.p. daily, started 45 days post-STZ
Experimental: In vivo Assay of NAALADase Inhibitors on Neuropathic Pain in STZ Model
Male Sprague-Dawley rats (200–225 g) were rendered diabetic by intravenous administration of streptozotocin (“STZ”, 70 mg/kg in phosphate buffered saline). Diabetic animals were divided into five groups: one group receiving Compound A (10 mg/kg or 1 mg/kg), Compound D (10 mg/kg or 1 mg/kg) or vehicle. Another group of animals (non-STZ treated) served as non-diabetic controls. Drug/vehicle treatment was started in diabetic animals 45 days post-STZ administration. STZ-induced diabetic rats were tested for sensitivity to a heat source as soon as blood glucose levels rose to 320 mg/dl or above (30 days post STZ). The rats were then acclimated to a Hargreaves apparatus and thermal nociception was monitored using an infrared heat source directed into the dorsal surface of the hindpaw, and the time taken for the animal to remove its paw noted to the nearest 0.1 seconds (see Hargreaves et al., J. Biol. Chem. (1988) 263(36):19392–7 for a description of the experimental method). The intensity of the beam source was adjusted such that the mean latency for control animals (non-STZ treated) was approximately 10 seconds. Each animal was tested 8 times and the mean difference score (between mean non-diabetic control latency and mean diabetic latency) are graphically presented in FIGS. 7A and 7B.

[8] = test system: STZ diabetic rats; test: Reversal of diabetic neuropathy in STZ model, delayed dosing: thermal hyperalgesia; assay type: in vivo
Experimental: as §5, §6, §7
Animals were acclimated to the apparatus for at least 5 min. An infra-red source was placed under below the plantar surface of the rat hind-paw. The intensity of the source was adjusted so that latency for normal rats was about 10 secs. Animals were tested for thermal response latency according to the method of Hargreaves et al (Pain 77–88, 1988). Each animal was tested 8 times (4 each hind limb) and the latency of response recorded automatically to nearest 0.1 sec. An average of the last 4 measurements for each paw was calculated (8 total measurements) and noted for each rat.

[9] = test system: BB/W diabetic rats; test: Nerve conduction velocity in BB/W model; assay type: in vivo; conditions: 10 mg/kg daily; vs diabetic vehicle controls, from 8 weeks to six months, FIG. 12
From the text: as §4, with “monthly.” for “monthly. The testing consists of directing an infrared heat source onto the dorsal surface of the rat hindpaw and noting the time taken for the animal to remove its paw (see Hargreaves et al., J. Biol. Chem. (1988) 263(36):19392–7 for a description of the experimental method).”
Nerve conduction velocity was also measured every two weeks through the first eight weeks of treatment and every month thereafter through to the six months of treatment (see De Koning et al., Peptides, Vol. 8, No. 3, pp. 415–22 (1987) for a description of the experimental method). […]

[10] = test system: STZ-diabetic rats; test: Diabetic neuropathy in STZ model (motor and sensory nerve conduction velocity); assay type: in vivo
Experimental: In vivo Assay of NAALADase Inhibitors on Diabetic Neuropathy in STZ Model
Motor and sensory nerve conduction velocity was also measured in STZ-diabetic animals after 4, 8 and 12 weeks of treatment (see De Koning et al., supra, for a description of the experimental method). Briefly, stimulating needle electrodes were inserted close to the sciatic and tibial nerves with recording electrodes being placed subcutaneously over the distal foot muscles, in anesthetized rats.

[11] = 2 weeks survival after transection
[12] = 4 weeks survival after transection

Structure (SMILES): O=C(O)CCC(CCCS)C(=O)O (stereo not drawn) [Compound B, 2-(3-sulfanylpropyl)pentanedioic acid]
- remaining axons relative to the saline-treated rats ([1]; 2 weeks after transection): twice
- PERCENT DIFFERENCE in fiber number [1, 11]: 75.3 ± 14.8%
- FIBER NUMBER [1, 11]: 19,550 ± 11,383
- PERCENT DIFFERENCE in fiber number [1, 12]: 93.4 ± 6.2%
- FIBER NUMBER [1, 12]: 5,162 ± 5,017
- FIBER NUMBER ([2]; 8 week group): 80785 ± 2121
- PERCENT DIFFERENCE in fiber number between glaucoma and normal eye ([2]; 8 week group): −0.82 ± 2.97%
- FIBER NUMBER ([2]; 12 week group): 90504 ± 1718
- PERCENT DIFFERENCE in fiber number between glaucoma and normal eye ([2]; 12 week group): −3.21 ± 2.86%
- rotarod performance ([3]; normal non-HD mice, 30 mg/kg): no effect
- rotarod performance (time on rotarod) ([3]; transgenic HD mice, 30 mg/kg from 10 weeks of age, vs vehicle, FIG. 33): stayed longer on the rotarod
- survival time ([4]; female transgenic HD mice, vs vehicle, p-value=0.03, FIG. 37): significantly prolonged survival time
- median survival time ([4]; transgenic HD mice, all, vehicle 158.5 days, p-value=0.07, FIG. 35): 184 days

Structure (SMILES): O=C(O)CCC(CCS)C(=O)O (stereo not drawn) [Compound D, 2-(2-sulfanylethyl)pentanedioic acid]
- withdrawal latency [5]: longer withdrawal latencies
- motor nerve conduction velocity ([6]; daily p.o., within 8 weeks of dosing, persisted through 12 weeks, FIG. 23): reversed the motor nerve conduction velocity towards normal
- motor nerve conduction ([6]; lower doses (1 and 3 mg/kg), even 8 weeks after dosing, FIG. 27): remained unimproved
- sensory nerve conduction ([6]; lower doses (1 and 3 mg/kg), within 4 weeks of treatment, FIG. 26): significantly improved towards normal
- sensory and motor nerve conduction velocity deficits ([6]; untreated until 60 days after STZ treatment, external CRO, FIGS. 28 and 29): Partial reversal of both deficits
- hyperalgesic response (withdrawal latency difference score) [7]: completely reversed
- neuropathic hyperalgesia (thermal response latency) ([8]; daily p.o., treatment from 5 weeks post STZ, within two weeks of treatment, FIG. 22): reversed towards normal
- neuropathic pain abnormalities ([8]; lower doses (1 and 3 mg/kg) initiated after 7 weeks of STZ treatment, FIG. 25): Significant reduction in pain abnormalities
- nerve conduction velocity [9]: significantly less severe nerve conduction deficits
- treatment time at which increase of motor and sensory nerve conduction velocities was significant ([10]; 1 mg/kg dose): at the earlier time periods
- motor and sensory nerve conduction velocities ([10]; either dose (10 mg/kg or 1 mg/kg), vs diabetic controls, FIGS. 10A and 10B): increased both motor and sensory nerve conduction velocities
